IC50 data for 23 compounds are collected here from US20140187548A1, “6 SUBSTITUTED IMIDAZOPYRAZINES FOR USE AS MPS-1 AND TKK INHIBITORS IN THE TREATMENT OF HYPERPROLIFERATIVE DISORDERS” (BAYER INTELLECTUAL PROPERTY GMBH, priority 2010, published 2014).

The target in this experiment is T1, human kinase Mps-1 (Homo sapiens, UniProt P33981).
T1 construct: N-terminally GST-tagged human full length recombinant Mps-1 kinase; GST (N); purchased Invitrogen, Karslruhe, Germany PV4071
T1 sequence (P33981 1-857): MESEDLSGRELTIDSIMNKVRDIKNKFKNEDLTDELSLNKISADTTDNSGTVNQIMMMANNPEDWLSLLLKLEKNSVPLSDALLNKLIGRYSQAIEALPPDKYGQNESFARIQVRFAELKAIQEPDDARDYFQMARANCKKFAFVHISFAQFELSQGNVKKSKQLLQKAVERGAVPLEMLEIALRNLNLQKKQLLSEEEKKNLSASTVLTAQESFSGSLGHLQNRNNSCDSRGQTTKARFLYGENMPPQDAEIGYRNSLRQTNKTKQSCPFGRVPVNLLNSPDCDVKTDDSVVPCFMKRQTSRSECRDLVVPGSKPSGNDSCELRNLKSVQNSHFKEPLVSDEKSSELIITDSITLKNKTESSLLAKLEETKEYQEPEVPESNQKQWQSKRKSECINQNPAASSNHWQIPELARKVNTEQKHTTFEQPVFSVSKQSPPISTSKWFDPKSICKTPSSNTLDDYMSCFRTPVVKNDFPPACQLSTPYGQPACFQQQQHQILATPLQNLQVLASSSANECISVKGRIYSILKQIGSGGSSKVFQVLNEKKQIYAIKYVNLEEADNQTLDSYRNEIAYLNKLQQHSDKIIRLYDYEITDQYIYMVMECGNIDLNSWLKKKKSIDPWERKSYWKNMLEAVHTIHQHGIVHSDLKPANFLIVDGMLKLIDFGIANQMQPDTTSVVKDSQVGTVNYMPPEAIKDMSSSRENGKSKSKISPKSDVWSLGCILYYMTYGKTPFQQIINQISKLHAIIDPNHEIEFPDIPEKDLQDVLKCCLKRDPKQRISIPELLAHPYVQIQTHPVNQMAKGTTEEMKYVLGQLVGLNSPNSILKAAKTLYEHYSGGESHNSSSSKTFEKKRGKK
The experiment in a line: Mps-1 kinase assay (TR-FRET). In kind it is biochemical. Conditions: N-terminally GST-tagged human full length recombinant Mps-1; 10 μM ATP; 1 μM peptide substrate; 15 min pre-incubation; 60 min at 22° C. The protocol: The human kinase Mps-1 phosphorylates a biotinylated substrate peptide. Detection of the phosphorylated product is achieved by time-resolved fluorescence resonance energy transfer (TR-FRET) from Europium-labelled anti-phospho-Serine/Threonine antibody as donor to streptavidin labelled with cross-linked allophycocyanin (SA-XLent) as acceptor. Compounds are tested for their inhibition of the kinase activity.
N-terminally GST-tagged human full length recombinant Mps-1 kinase (purchased from Invitrogen, Karslruhe, Germany, cat. no PV4071) was used. As substrate for the kinase reaction a biotinylated peptide of the amino-acid sequence […] (C-terminus in amide form, purchased from Biosynthan GmbH, Berlin) was used.
The concentration of Mps-1 in the assay was adjusted to the activity of the enzyme lot and was chosen appropriate to have the assay in the linear range, typical enzyme concentrations were in the range of about 1 nM (final conc. in the 5 μl assay volume).
The resulting mixture was incubated 1 h at 22° C. to allow the binding of the phosphorylated peptide to the anti-phospho(Ser/Thr)-Europium-antibody. Subsequently the amount of phosphorylated substrate was evaluated by measurement of the resonance energy transfer from the Europium-labelled anti-phospho(Ser/Thr) antibody to the Streptavidin-XLent. Therefore, the fluorescence emissions at 620 nm and 665 nm after excitation at 350 nm was measured in a Viewlux TR-FRET reader (PerkinElmer LAS, Rodgau-Jügesheim, Germany). The “blank-corrected normalized ratio” (a Viewlux specific readout, similar to the traditional ratio of the emissions at 665 nm and at 622 nm, in which blank and Eu-donor crosstalk are subtracted from the 665 nm signal before the ratio is calculated) was taken as the measure for the amount of phosphorylated substrate.
(In general: In TR-FRET formats the signal depends on donor and acceptor labels being close together.)

Turning to `CC(C)CNc1nc(-c2ccc(C(N)=O)cc2)cn2c(-c3ccc(C(=O)NC4CC4)cc3)cnc12` [Example 1-24, 4-{6-(4-carbamoylphenyl)-8-[(2-methylpropyl)amino]imidazo[1,2-a]pyrazin-3-yl}-N-cyclo-propylbenzamide], the IC50 (as a rule, the concentration needed to halve the response being measured) was determined as 1.1 nM.
For the compound `CC(C)CNc1nc(-c2cccc(C(N)=O)c2)cn2c(-c3ccc(C(=O)NC4CC4)cc3)cnc12` [Example 1-25, 4-{6-(3-carbamoylphenyl)-8-[(2-methylpropyl)amino]imidazo[1,2-a]pyrazin-3-yl}-N-cyclo-propylbenzamide], the IC50 came out at 1.2 nM.
Then `CC(C)CNc1nc(-c2ccc(C(=O)N3CCCC3)cc2)cn2c(-c3ccc(C(=O)NC4CC4)cc3)cnc12` [Example 1-26, N-cyclopropyl-4-{8-[(2-methylpropyl)amino]-6-[4-(pyrrolidin-1-yl-carbonyl)phenyl]imidazo [1,2-a]pyrazin-3-yl} benzamide], with 3.9 nM; and `CC(C)CNc1nc(-c2cccc(C(=O)N(C)C)c2)cn2c(-c3ccc(C(=O)NC4CC4)cc3)cnc12` [Example 1-27, 3-{3-[4-(cyclopropyl-carbamoyl)phenyl]-8-[(2-methylpropyl)amino]imidazo[1,2-a]pyrazin-6-yl}-N,N-dimethyl-benzamide], with 8.1 nM.
Turning to `CC(C)CNc1nc(-c2ccccc2C(=O)N(C)C)cn2c(-c3ccc(C(=O)NC4CC4)cc3)cnc12` [Example 1-28, 2-{3-[4-(cyclopropyl-carbamoyl)phenyl]-8-[(2-methylpropyl)amino]imidazo[1,2-a]pyrazin-6-yl}-N,N-dimethyl-benzamide], the IC50 was determined as 8.2 nM.
As for `CC(C)CNc1nc(-c2cccc(OC(C)C)c2)cn2c(-c3ccc(C(=O)NC4CC4)cc3)cnc12` [Example 1-29, N-cyclopropyl-4-{8-[(2-methylpropyl)amino]-6-[3-(propan-2-yloxy)phenyl]imidazo[1,2-a]pyrazin-3-yl}benzamide], the IC50 was 15.1 nM.
`CC(C)CNc1nc(-c2ccc(C(=O)NC3CC3)cc2)cn2c(-c3ccc(C(=O)NC4CC4)cc3)cnc12` [Example 1-30, 4,4′-{8-[(2-methylpropyl)amino]imidazo[1,2-a]pyrazine-3,6-diyl}bis (N-cyclopropylbenzamide)]: the IC50 is 1.5 nM.
For `CNC(=O)c1ccc(-c2cn3c(-c4ccc(C(=O)NC5CC5)cc4)cnc3c(NCC(C)C)n2)cc1` [Example 1-31, 4-{3-[4-(cyclopropyl-carbamoyl)phenyl]-8-[(2-methylpropyl)amino]imidazo[1,2-a]pyrazin-6-yl}-N-methylbenzamide], the IC50 was determined as 1.3 nM.
On to `CC(C)CNc1nc(-c2cccc3cnccc23)cn2c(-c3ccc(C(=O)NC4CC4)cc3)cnc12` [Example 1-32, N-cyclopropyl-4-{6-(iso-quinolin-5-yl)-8-[(2-methylpropyl)amino]imidazo[1,2-a]pyrazin-3-yl}benzamide], for which the half-maximal inhibitory concentration (IC50) was found to be 1.3 nM.
Take `CNC(=O)c1cccc(-c2cn3c(-c4ccc(C(=O)NC5CC5)cc4)cnc3c(NCC(C)C)n2)c1` [Example 1-33, 3-{3-[4-(cyclopropyl-carbamoyl)phenyl]-8-[(2-methylpropyl)amino]imidazo[1,2-a]pyrazin-6-yl}-N-methylbenzamide]: the IC50 came to 1.4 nM.
In the case of `CC(C)CNc1nc(-c2ccc(C(=O)NC(C)C)cc2)cn2c(-c3ccc(C(=O)NC4CC4)cc3)cnc12` [Example 1-34, 4-{3-[4-(cyclopropyl-carbamoyl)phenyl]-8-[(2-methylpropyl)amino]imidazo[1,2-a]pyrazin-6-yl}-N-(propan-2-yl) benzamide] it was 4.2 nM.
In the case of `CC(C)CNc1nc(-c2cccc(C(F)(F)F)c2)cn2c(-c3ccc(C(=O)NC4CC4)cc3)cnc12` [Example 1-35, N-cyclopropyl-4-{8-[(2-methylpropyl)amino]-6-[3-(trifluoromethyl)phenyl]imidazo[1,2-a]pyrazin-3-yl}benzamide], the half-inhibitory concentration (IC50) stood at 49.3 nM.
In the case of `CC(C)CNc1nc(-c2ccc(C(F)(F)F)cc2)cn2c(-c3ccc(C(=O)NC4CC4)cc3)cnc12` [Example 1-36, N-cyclopropyl-4-{8-[(2-methylpropyl)amino]-6-[4-(trifluoromethyl)phenyl]imidazo[1,2-a]pyrazin-3-yl}benzamide], the IC50 came out at 30 nM.
For the compound `CC(C)CNc1nc(-c2cccc(Cl)c2)cn2c(-c3ccc(C(=O)NC4CC4)cc3)cnc12` [Example 1-37, 4-{6-(3-chlorophenyl)-8-[(2-methylpropyl)amino]imidazo[1,2-a]pyrazin-3-yl}-N-cyclopropyl-benzamide], the IC50 was determined as 15.2 nM.
In the case of `COc1cccc(-c2cn3c(-c4ccc(C(=O)NC5CC5)cc4)cnc3c(NCC(C)C)n2)c1` [Example 1-38, N-cyclopropyl-4-{6-(3-methoxyphenyl)-8-[(2-methylpropyl)amino]imidazo[1,2-a]pyrazin-3-yl}benzamide] it was 4.8 nM.
Then `Cc1cc(C)cc(-c2cn3c(-c4ccc(C(=O)NC5CC5)cc4)cnc3c(NCC(C)C)n2)c1` [Example 1-39, N-cyclopropyl-4-{6-(3,5-dimethylphenyl)-8-[(2-methylpropyl)amino]imidazo[1,2-a]pyrazin-3-yl}benzamide], with 32.3 nM; and `CC(C)CNc1nc(-c2cccc(F)c2)cn2c(-c3ccc(C(=O)NC4CC4)cc3)cnc12` [Example 1-40, N-cyclopropyl-4-{6-(3-fluorophenyl)-8-[(2-methylpropyl)amino]imidazo[1,2-a]pyrazin-3-yl}benzamide], with 6.9 nM; and `COc1ccccc1-c1cn2c(-c3ccc(C(=O)NC4CC4)cc3)cnc2c(NCC(C)C)n1` [Example 1-41, N-cyclopropyl-4-{6-(2-methoxyphenyl)-8-[(2-methylpropyl)amino]imidazo[1,2-a]pyrazin-3-yl}benzamide], with 7.4 nM.
In the case of `CC(C)CNc1nc(-c2ccc3ccccc3c2)cn2c(-c3ccc(C(=O)NC4CC4)cc3)cnc12` [Example 1-42, N-cyclopropyl-4-{8-[(2-methylpropyl)amino]-6-(naphthalen-2-yl)imidazo[1,2-a]pyrazin-3-yl}benzamide] it was 49 nM; in that of `CC(C)CNc1nc(-c2ccccc2C(F)(F)F)cn2c(-c3ccc(C(=O)NC4CC4)cc3)cnc12` [Example 1-43, N-cyclopropyl-4-{8-[(2-methylpropyl)amino]-6-[2-(trifluoromethyl)phenyl]imidazo[1,2-a]pyrazin-3-yl}benzamide], 16.3 nM; in that of `CCOc1cccc(-c2cn3c(-c4ccc(C(=O)NC5CC5)cc4)cnc3c(NCC(C)C)n2)c1` [Example 1-44, N-cyclopropyl-4-{6-(3-ethoxyphenyl)-8-[(2-methylpropyl)amino]imidazo[1,2-a]pyrazin-3-yl}benzamide], 5.8 nM.
In the case of `CC(C)CNc1nc(-c2ccc(Cl)c(Cl)c2)cn2c(-c3ccc(C(=O)NC4CC4)cc3)cnc12` [Example 1-45, N-cyclopropyl-4-{6-(3,4-dichlorophenyl)-8-[(2-methylpropyl)amino]imidazo[1,2-a]pyrazin-3-yl}benzamide], the IC50 is 22.6 nM.
`CC(=O)c1cccc(-c2cn3c(-c4ccc(C(=O)NC5CC5)cc4)cnc3c(NCC(C)C)n2)c1` [Example 1-46, 4-{6-(3-acetylphenyl)-8-[(2-methylpropyl)amino]imidazo[1,2-a]pyrazin-3-yl}-N-cyclo-propylbenzamide]: the IC50 came to 2.3 nM.
